Results as given in ChEMBL document CHEMBL1201862, “PubChem BioAssay data set” (2004).
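1) Cells in 96-well plates. 2) Compound, 48 h, 5 concentrations. 3) Linear interpolation between surrounding doses. 4) Unreached endpoint = highest concentration. GI50 = concentration required for 50% inhibition of growth.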 Activity calls are given as the source filed them. Cut-off read from the data, not from the text of the source: active = GI50 up to about 1.1 µM and inactive = higher.

What was measured:
Test in all cases: inhibition of tumour cell growth, NCI panel, 48 h
ACHN = test system: ACHN
HT-29 = test system: HT-29
HCT-116 = test system: HCT-116
SK-OV-3 = test system: SK-OV-3
NCI-H226 = test system: NCI-H226
A549 = test system: A549
SF-295 = test system: SF-295
SN12C = test system: SN12C
TK-10 = test system: TK-10
NCI-H522 = test system: NCI-H522
SK-MEL-28 = test system: SK-MEL-28
SNB-75 = test system: SNB-75
SR = test system: SR
RPMI-8226 = test system: RPMI-8226
COLO 205 = test system: COLO 205
M14 = test system: M14
T47D = test system: T47D

Compound: CN(C)NC(=O)NC12CC3CC(CC(C3)C1)C2
- GI50 (ACHN): > 100 µM (inactive)
- GI50 (HT-29): > 100 µM (inactive)
- GI50 (HCT-116): > 100 µM (inactive)
- GI50 (SK-OV-3): > 100 µM (inactive)
- GI50 (NCI-H226): > 100 µM (inactive)
- GI50 (A549): > 100 µM (inactive)
- GI50 (SF-295): > 100 µM (inactive)
- GI50 (SN12C): > 100 µM (inactive)
- GI50 (TK-10): > 10 µM (inactive)
- GI50 (NCI-H522): > 100 µM (inactive)
- GI50 (SK-MEL-28): > 10 µM (inactive)
- GI50 (SNB-75): > 100 µM (inactive)
- GI50 (SR): > 100 µM (inactive)
- GI50 (RPMI-8226): > 100 µM (inactive)
- GI50 (COLO 205): > 100 µM (inactive)

Compound: Cc1ccc(-n2c3nc(=O)n(C)c(=O)c-3nc3ccccc32)c(C)c1
- GI50 (ACHN): 3.58 µM (inactive)
- GI50 (HT-29): 3.28 µM (inactive)
- GI50 (HCT-116): 11.8 µM (inactive)
- GI50 (SK-OV-3): 35.1 µM (inactive)
- GI50 (NCI-H226): 14.9 µM (inactive)
- GI50 (A549): 4.74 µM (inactive)
- GI50 (SF-295): 10.7 µM (inactive)
- GI50 (SN12C): 10.9 µM (inactive)
- GI50 (TK-10): 13.2 µM (inactive)
- GI50 (NCI-H522): 15.4 µM (inactive)
- GI50 (M14): 4.76 µM (inactive)
- GI50 (SNB-75): 13.3 µM (inactive)
- GI50 (RPMI-8226): 12.8 µM (inactive)
- GI50 (COLO 205): 3.46 µM (inactive)

Compound: CC1(C2CCC3(C)OC3C2)CO1 (stereo unspecified)
- GI50 (ACHN): > 100 µM (inactive)
- GI50 (HT-29): > 100 µM (inactive)
- GI50 (HCT-116): > 100 µM (inactive)
- GI50 (SK-OV-3): > 100 µM (inactive)
- GI50 (NCI-H226): > 100 µM (inactive)
- GI50 (A549): > 100 µM (inactive)
- GI50 (SF-295): > 100 µM (inactive)
- GI50 (SN12C): > 100 µM (inactive)
- GI50 (TK-10): > 100 µM (inactive)
- GI50 (NCI-H522): > 100 µM (inactive)
- GI50 (SK-MEL-28): > 100 µM (inactive)
- GI50 (M14): > 100 µM (inactive)
- GI50 (SNB-75): > 100 µM (inactive)
- GI50 (SR): > 100 µM (inactive)
- GI50 (RPMI-8226): > 100 µM (inactive)
- GI50 (COLO 205): > 100 µM (inactive)

Compound: COC1=NCc2ccccc2-c2ccccc21
- GI50 (ACHN): > 100 µM (inactive)
- GI50 (HT-29): > 100 µM (inactive)
- GI50 (HCT-116): > 100 µM (inactive)
- GI50 (SK-OV-3): > 100 µM (inactive)
- GI50 (NCI-H226): > 100 µM (inactive)
- GI50 (A549): > 100 µM (inactive)
- GI50 (SF-295): > 100 µM (inactive)
- GI50 (SN12C): > 100 µM (inactive)
- GI50 (TK-10): > 100 µM (inactive)
- GI50 (NCI-H522): > 100 µM (inactive)
- GI50 (SK-MEL-28): > 100 µM (inactive)
- GI50 (SNB-75): > 100 µM (inactive)

Compound: O=C(/C=C/c1ccc([N+](=O)[O-])cc1)c1ccc(NCc2nc3ccccc3[nH]2)cc1
- GI50 (ACHN): 10.5 µM (inactive)
- GI50 (HT-29): 3.44 µM (inactive)
- GI50 (SK-OV-3): 13.6 µM (inactive)
- GI50 (SF-295): 3.86 µM (inactive)
- GI50 (SN12C): 2.96 µM (inactive)
- GI50 (TK-10): 5.96 µM (inactive)
- GI50 (NCI-H522): 3.26 µM (inactive)
- GI50 (SK-MEL-28): 13 µM (inactive)
- GI50 (M14): 11.5 µM (inactive)
- GI50 (SNB-75): 3.93 µM (inactive)
- GI50 (SR): 3.34 µM (inactive)
- GI50 (COLO 205): 2.07 µM (inactive)

Compound: COc1ccc2c(c1)[n+]([O-])c(/C(C)=N/NC(=O)CC#N)c[n+]2[O-]
- GI50 (ACHN): > 100 µM (inactive)
- GI50 (HT-29): > 100 µM (inactive)
- GI50 (HCT-116): 83.9 µM (inactive)
- GI50 (SK-OV-3): > 100 µM (inactive)
- GI50 (NCI-H226): > 100 µM (inactive)
- GI50 (A549): > 100 µM (inactive)
- GI50 (SF-295): > 100 µM (inactive)
- GI50 (SN12C): > 100 µM (inactive)
- GI50 (TK-10): > 100 µM (inactive)
- GI50 (NCI-H522): > 100 µM (inactive)
- GI50 (SK-MEL-28): > 100 µM (inactive)
- GI50 (M14): > 100 µM (inactive)
- GI50 (SNB-75): > 100 µM (inactive)
- GI50 (SR): > 100 µM (inactive)
- GI50 (RPMI-8226): 54.7 µM (inactive)
- GI50 (COLO 205): 83.4 µM (inactive)

Compound: CCOP(=S)(OCC)Oc1ccc2c(c1)OC(=O)C1(Cl)C2(C)C2(Cl)C(=O)Oc3cc(OP(=S)(OCC)OCC)ccc3C12C (stereo unspecified)
- GI50 (ACHN): 22.4 µM (inactive)
- GI50 (HT-29): 15.5 µM (inactive)
- GI50 (HCT-116): 12.3 µM (inactive)
- GI50 (NCI-H226): 15.1 µM (inactive)
- GI50 (A549): 25.5 µM (inactive)
- GI50 (SF-295): 14.7 µM (inactive)
- GI50 (SN12C): 19.2 µM (inactive)
- GI50 (TK-10): 25.5 µM (inactive)
- GI50 (NCI-H522): 10.4 µM (inactive)
- GI50 (SK-MEL-28): 16.5 µM (inactive)
- GI50 (M14): 17.7 µM (inactive)
- GI50 (SNB-75): 16.1 µM (inactive)
- GI50 (RPMI-8226): 11.1 µM (inactive)
- GI50 (COLO 205): 19.1 µM (inactive)

Compound: COc1ccc(Nc2nc3c([nH]2)c(=O)n(C)c(=O)n3C)cc1
- GI50 (HT-29): > 10 µM (inactive)
- GI50 (SK-OV-3): > 10 µM (inactive)
- GI50 (A549): > 10 µM (inactive)
- GI50 (SF-295): > 10 µM (inactive)
- GI50 (SN12C): > 10 µM (inactive)
- GI50 (TK-10): > 10 µM (inactive)
- GI50 (T47D): > 10 µM (inactive)
- GI50 (SK-MEL-28): > 10 µM (inactive)
- GI50 (M14): > 10 µM (inactive)
- GI50 (SNB-75): > 10 µM (inactive)
- GI50 (SR): > 10 µM (inactive)
- GI50 (RPMI-8226): > 10 µM (inactive)
- GI50 (COLO 205): > 10 µM (inactive)

Compound: COC(=O)c1nn(C(=N)c2ccc(Cl)cc2)c2c1CCCCC2
- GI50 (ACHN): > 100 µM (inactive)
- GI50 (HT-29): > 100 µM (inactive)
- GI50 (HCT-116): > 100 µM (inactive)
- GI50 (SK-OV-3): > 100 µM (inactive)
- GI50 (NCI-H226): > 100 µM (inactive)
- GI50 (A549): > 100 µM (inactive)
- GI50 (SF-295): > 100 µM (inactive)
- GI50 (SN12C): > 100 µM (inactive)
- GI50 (TK-10): > 100 µM (inactive)
- GI50 (NCI-H522): > 100 µM (inactive)
- GI50 (SK-MEL-28): > 100 µM (inactive)
- GI50 (M14): > 100 µM (inactive)
- GI50 (SNB-75): > 100 µM (inactive)
- GI50 (SR): > 100 µM (inactive)
- GI50 (RPMI-8226): > 100 µM (inactive)
- GI50 (COLO 205): > 100 µM (inactive)

Compound: O=C(n1c2ccccc2c2nnc(S)nc21)C(F)(F)F
- GI50 (HT-29): > 100 µM (inactive)
- GI50 (HCT-116): > 100 µM (inactive)
- GI50 (SK-OV-3): > 100 µM (inactive)
- GI50 (NCI-H226): > 100 µM (inactive)
- GI50 (A549): > 100 µM (inactive)
- GI50 (SF-295): > 100 µM (inactive)
- GI50 (SN12C): > 100 µM (inactive)
- GI50 (TK-10): 0.962 µM (active)
- GI50 (NCI-H522): > 100 µM (inactive)
- GI50 (SK-MEL-28): 60.5 µM (inactive)
- GI50 (M14): > 100 µM (inactive)
- GI50 (SNB-75): > 100 µM (inactive)
- GI50 (COLO 205): > 100 µM (inactive)
